PMC10510108, “Studies Pertaining to the Emerging Cannabinoid Hexahydrocannabinol (HHC)” (ACS Chemical Biology, 2023)
Entries after “also recorded” stand apart in the source; their conditions may differ. Read-outs that look alike come from different tables or passages of the source.

What was measured:
human CB2 receptor = target: T1, human CB2 receptor (Homo sapiens, UniProt P34972); assay: cell-based; conditions: for EC50: cAMP HTRF, transfected CHO cells, two replicate experiments, error = standard deviation
T1 construct: host or cells: CHO cells

human CB1 receptor = target: T2, human CB1 receptor (Homo sapiens, UniProt P21554); assay: cell-based; conditions: for EC50: cAMP HTRF, transfected CHO cells, two replicate experiments, error = standard deviation
T2 construct: host or cells: CHO cells

[1] = target: T3, human CB2 cannabinoid receptor (Homo sapiens, UniProt P34972); assay: biochemical; assay type: binding; conditions: for nH (Hill coefficient): competition curve fit; for Top (% inhibition of control specific binding): four parameter curve fit
T3 construct: host or cells: CHO cells

[2] = target: T4, human CB1 cannabinoid receptor (Homo sapiens, UniProt P21554); assay: biochemical; assay type: binding; conditions: for nH (Hill coefficient) / Top (% inhibition of control specific binding): SI; for nH (Hill coefficient): competition curve fit; for Top (% inhibition of control specific binding): four parameter curve fit
T4 construct: host or cells: Chem-1 cells

[3] = [3H]WIN 55212-2 displacement, transfected CHO cell lysate, two replicate experiments, error = standard deviation, read-out: Ki (CB2)

T1 sequence (P34972 whole entry): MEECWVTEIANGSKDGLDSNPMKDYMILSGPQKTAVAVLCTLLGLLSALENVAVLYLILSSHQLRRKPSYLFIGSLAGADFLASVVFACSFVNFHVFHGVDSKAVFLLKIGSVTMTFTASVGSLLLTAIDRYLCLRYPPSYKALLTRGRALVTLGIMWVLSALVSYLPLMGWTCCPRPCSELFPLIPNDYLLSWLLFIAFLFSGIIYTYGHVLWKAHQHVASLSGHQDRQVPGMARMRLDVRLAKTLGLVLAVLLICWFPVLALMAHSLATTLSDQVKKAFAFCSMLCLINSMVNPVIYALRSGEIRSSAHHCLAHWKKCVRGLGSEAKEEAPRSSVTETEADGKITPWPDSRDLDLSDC
T3 sequence (P34972 whole entry): as above
T2 sequence (P21554 whole entry): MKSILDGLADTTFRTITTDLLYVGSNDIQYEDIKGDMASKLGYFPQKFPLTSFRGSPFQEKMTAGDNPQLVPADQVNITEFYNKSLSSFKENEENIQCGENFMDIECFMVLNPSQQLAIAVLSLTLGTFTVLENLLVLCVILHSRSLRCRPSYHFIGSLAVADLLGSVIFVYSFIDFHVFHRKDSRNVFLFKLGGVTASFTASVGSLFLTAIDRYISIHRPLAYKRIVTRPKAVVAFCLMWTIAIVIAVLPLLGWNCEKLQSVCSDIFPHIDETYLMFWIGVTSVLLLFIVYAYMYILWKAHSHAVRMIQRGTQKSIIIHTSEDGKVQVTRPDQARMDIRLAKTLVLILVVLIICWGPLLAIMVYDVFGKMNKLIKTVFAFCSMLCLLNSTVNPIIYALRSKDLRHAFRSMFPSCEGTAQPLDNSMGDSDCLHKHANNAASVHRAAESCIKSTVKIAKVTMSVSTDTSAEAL
T4 sequence (P21554 whole entry): as above

How did the EC50 (human CB2 receptor) turn out when `CCCCCc1cc(O)c2c(c1)OC(C)(C)[C@@H]1CC[C@H](C)C[C@@H]21` [4b, (9S)-HHC] was run?
Its EC50 is 56 nM.

And the “selectivity for CB2 (functional activity)” value (human CB2 receptor; from EC50 at CB1 and CB2)?
The value was 1.0 x.

What about the “agonist character at CB2” value (human CB2 receptor; functional assay) of the same compound?
Its value is “partial agonists; also recorded: partial CB1 and CB2 receptor agonist activity”.

What about the “selectivity for CB1 (functional assay)” value (human CB1 receptor; CB1 versus CB2, from EC50) of the same compound?
Its value is “no significant selectivity”.

What about the EC50 (human CB1 receptor) of the same compound?
The EC50 was 57 nM.

What about the “agonist character at CB1” value (human CB1 receptor; functional assay) of the same compound?
Its value is “partial agonists; also recorded: partial CB1 and CB2 receptor agonist activity”.

What about the “% inhibition of control specific binding” value ([1]; Log[M] –5.48, 1st replicate) of the same compound?
Its value is 88.30%.

And the “% inhibition of control specific binding” value ([1]; Log[M] –5.48, 2nd replicate)?
The value was 88.00%.

And the “% inhibition of control specific binding” value ([1]; Log[M] –6.43, 1st replicate)?
The value was 62.60%.

And the “% inhibition of control specific binding” value ([1]; Log[M] –6.43, 2nd replicate)?
The value was 61.40%.

What about the “% inhibition of control specific binding” value ([1]; Log[M] –6.91, 1st replicate) of the same compound?
The value was 41.60%.

And the “% inhibition of control specific binding” value ([1]; Log[M] –6.91, 2nd replicate)?
Its value is 41.40%.

And the “% inhibition of control specific binding” value ([1]; Log[M] –7.39, 1st replicate)?
The value was 15.80%.

What about the “% inhibition of control specific binding” value ([1]; Log[M] –7.39, 2nd replicate) of the same compound?
The value was 16.00%.

And the “% inhibition of control specific binding” value ([1]; Log[M] –7.86, 1st replicate)?
Its value is 4.40%.

And the “% inhibition of control specific binding” value ([1]; Log[M] –7.86, 2nd replicate)?
The value was 6.70%.

What about the “nH (Hill coefficient)” value ([1]; SI) of the same compound?
The value was 0.7.

And the Ki ([1]; SI, curve fitted to mean replicate values, Cheng Prusoff, read-out: Ki)?
Its Ki is 110 nM.

What about the “Top (% inhibition of control specific binding)” value ([1]; SI) of the same compound?
The value was 102.

What about the Ki [1, 3] of the same compound?
The Ki was 105 nM.

And the “selectivity for CB2 (radioligand binding)” value ([1]; from Ki at CB1 and CB2)?
The value was 1.7 x.

What about the “% inhibition of control specific binding” value ([2]; Log[M] –5.48, 1st replicate) of the same compound?
Its value is 88.80%.

What about the “% inhibition of control specific binding” value ([2]; Log[M] –5.48, 2nd replicate) of the same compound?
Its value is 95.80%.

What about the “% inhibition of control specific binding” value ([2]; Log[M] –6.43, 1st replicate) of the same compound?
The value was 35.70%.

And the “% inhibition of control specific binding” value ([2]; Log[M] –6.43, 2nd replicate)?
Its value is 35.70%.

What about the “% inhibition of control specific binding” value ([2]; Log[M] –6.91, 1st replicate) of the same compound?
Its value is 8.70%.

And the “% inhibition of control specific binding” value ([2]; Log[M] –6.91, 2nd replicate)?
The value was 5.50%.

And the “% inhibition of control specific binding” value ([2]; Log[M] –7.39, 1st replicate)?
The value was “–4.50%”.

And the “% inhibition of control specific binding” value ([2]; Log[M] –7.39, 2nd replicate)?
Its value is 0.20%.

And the “% inhibition of control specific binding” value ([2]; Log[M] –7.86, 1st replicate)?
The value was “–9.00%”.

And the “% inhibition of control specific binding” value ([2]; Log[M] –7.86, 2nd replicate)?
Its value is “–6.10%”.

And the “nH (Hill coefficient)” value [2]?
The value was 1.1.

And the “Top (% inhibition of control specific binding)” value [2]?
The value was 106.

And the Ki ([2]; [3H]CP 55940 displacement, transfected Chem-1 cell lysate, two replicate experiments, error = standard deviation, read-out: Ki (CB1))?
The Ki was 176 nM.

Which results are given for `CCCCCc1cc(O)c2c(c1)OC(C)(C)[C@@H]1CCC(C)=C[C@@H]21` [compound 1, Δ^9-trans-tetrahydrocannabinol, reference compound]?
agonist character at CB2 (human CB2 receptor; functional assay): partial agonists; also recorded: partial CB1 and CB2 receptor agonist activity; % inhibition of control specific binding ([1]; Log[M] –5.48, 1st replicate): 97.00%; % inhibition of control specific binding ([1]; Log[M] –5.48, 2nd replicate): 96.20%; % inhibition of control specific binding ([1]; Log[M] –6.43, 1st replicate): 98.10%; % inhibition of control specific binding ([1]; Log[M] –6.43, 2nd replicate): 98.20%; % inhibition of control specific binding ([1]; Log[M] –6.91, 1st replicate): 88.60%; % inhibition of control specific binding ([1]; Log[M] –6.91, 2nd replicate): 89.90%; % inhibition of control specific binding ([1]; Log[M] –7.39, 1st replicate): 74.30%; % inhibition of control specific binding ([1]; Log[M] –7.39, 2nd replicate): 67.60%; % inhibition of control specific binding ([1]; Log[M] –7.86, 1st replicate): 50.30%; % inhibition of control specific binding ([1]; Log[M] –7.86, 2nd replicate): 51.20%; nH (Hill coefficient) ([1]; SI): 1.0; Top (% inhibition of control specific binding) ([1]; SI): 100

What does the source list for `CCCCCc1cc(O)c2c(c1)OC(C)(C)[C@@H]1CC[C@@H](C)C[C@@H]21` [4a, (9R)-HHC]?
selectivity for CB2 (functional activity) (human CB2 receptor): 0.55 x; EC50 (human CB2 receptor): 6.2 nM; agonist character at CB2 (human CB2 receptor; functional assay): partial agonists; also recorded: partial CB1 and CB2 receptor agonist activity; increase in potency compared to 4b, CB2 (human CB2 receptor; functional assay): 9 fold; selectivity for CB1 (functional assay) (human CB1 receptor): 1.8 x; EC50 (human CB1 receptor): 3.4 nM; agonist character at CB1 (human CB1 receptor; functional assay): partial agonists; also recorded: partial CB1 and CB2 receptor agonist activity; increase in potency compared to 4b, CB1 (human CB1 receptor; functional assay): 17 fold; selectivity for CB2 (radioligand binding) [1]: 1.2 x; % inhibition of control specific binding ([1]; Log[M] –5.48, 1st replicate): 98.00%; % inhibition of control specific binding ([1]; Log[M] –5.48, 2nd replicate): 97.20%; % inhibition of control specific binding ([1]; Log[M] –6.43, 1st replicate): 96.90%; % inhibition of control specific binding ([1]; Log[M] –6.43, 2nd replicate): 93.60%; % inhibition of control specific binding ([1]; Log[M] –6.91, 1st replicate): 86.90%; % inhibition of control specific binding ([1]; Log[M] –6.91, 2nd replicate): 84.70%; % inhibition of control specific binding ([1]; Log[M] –7.39, 1st replicate): 64.90%; % inhibition of control specific binding ([1]; Log[M] –7.39, 2nd replicate): 67.50%; % inhibition of control specific binding ([1]; Log[M] –7.86, 1st replicate): 47.90%; % inhibition of control specific binding ([1]; Log[M] –7.86, 2nd replicate): 41.40%; nH (Hill coefficient) ([1]; SI): 1.1; Top (% inhibition of control specific binding) ([1]; SI): 99; Ki [1, 3]: 13 nM; Ki [2]: 15 nM; % inhibition of control specific binding ([2]; Log[M] –5.48, 1st replicate): 112.10%; % inhibition of control specific binding ([2]; Log[M] –5.48, 2nd replicate): 113.60%; % inhibition of control specific binding ([2]; Log[M] –6.43, 1st replicate): 95.20%; % inhibition of control specific binding ([2]; Log[M] –6.43, 2nd replicate): 100.00%; % inhibition of control specific binding ([2]; Log[M] –6.91, 1st replicate): 82.50%; % inhibition of control specific binding ([2]; Log[M] –6.91, 2nd replicate): 83.30%; % inhibition of control specific binding ([2]; Log[M] –7.39, 1st replicate): 50.10%; % inhibition of control specific binding ([2]; Log[M] –7.39, 2nd replicate): 52.90%; % inhibition of control specific binding ([2]; Log[M] –7.86, 1st replicate): 27.40%; % inhibition of control specific binding ([2]; Log[M] –7.86, 2nd replicate): 29.00%; nH (Hill coefficient) [2]: 1.1; Top (% inhibition of control specific binding) [2]: 111
